Source: US20150105252A1, “SUBSTITUTED PYRAZOLES AS HERBICIDES” (E I DU PONT DE NEMOURS AND COMPANY, priority 2013, published 2015)

Legend:
ragweed [1] = assay: Test C postemergence; assay type: in vivo, Ambrosia elation
In short: (§1)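 Pre- and postemergence greenhouse screen; vehicle was a non-phytotoxic solvent mix with surfactant. Preemergence: treatment applied right after sowing into loam and sand. Postemergence: treated at 1–4 leaves. Visual rating at 13–15 days, 100 = complete control.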

pigweed [2] = assay: Test A postemergence; assay type: in vivo, Amaranthus retroflexus
In short: (§2)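 Ratings express plant response from 0 (no effect) to 100 (complete control), judged visually against untreated controls after approximately 10 days in the greenhouse. Preemergence applications were made as directed soil sprays onto seeded loam–sand mix, and postemergence applications onto 2–10 cm plants at one- to two-leaf stage.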

galium = assay: Test C preemergence; assay type: in vivo, Galium aparine
In short: as §1

rice = assay: Test B flood; assay type: in vivo, Oryza sativa; conditions: 250 g ai/ha, visual rating on 0 to 100 scale (0 no effect, 100 complete control), 13 to 15 days
In short: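 Each compound is applied to the floodwater of pots holding 2-leaf seedlings, water standing 3 cm over the soil throughout. Plants stay in a greenhouse 13 to 15 days before visual scoring against controls from 0 (no effect) to 100 (complete control).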

corn [3] = assay: Test A postemergence; assay type: in vivo, Zea mays
In short: as §2

nutsedge, yellow = assay: Test C postemergence; assay type: in vivo, Cyperus esculentus; conditions: for Plant response rating (scale of 0 to 100 where 0 is no effect and 100 is complete control), Nutsedge, Yellow: Postemergence, 31 g ai/ha, visually evaluated after 13 to 15 days; for Nutsedge, Yellow plant response rating / Plant response rating, Nutsedge, Yellow: postemergence; for Nutsedge, Yellow plant response rating: 62 g ai/ha, scale 0 to 100
In short: as §1

foxtail, giant = assay: Test A preemergence; assay type: in vivo, Setaria faberii; conditions: preemergence; for Foxtail, Giant plant response rating (0 to 100 scale): visual injury approx. 10 days after treatment
In short: as §2

corn [4] = assay: Test C preemergence; assay type: in vivo, Zea mays
In short: as §1

pigweed [5] = assay: Test C postemergence; assay type: in vivo, Amaranthus retroflexus; conditions: for Pigweed plant response rating / Plant response rating, Pigweed: postemergence; for Pigweed plant response rating: 62 g ai/ha, scale 0 to 100
In short: as §1

blackgrass = assay: Test C postemergence; assay type: in vivo, Alopecurus myosuroides; conditions: for Plant response rating (scale of 0 to 100 where 0 is no effect and 100 is complete control), Blackgrass: Postemergence, 31 g ai/ha, visually evaluated after 13 to 15 days; for Blackgrass plant response rating / Plant response rating, Blackgrass: postemergence; for Blackgrass plant response rating: 62 g ai/ha, scale 0 to 100
In short: as §1

ragweed [6] = assay: Test C preemergence; assay type: in vivo, Ambrosia elation
In short: as §1

wheat = assay: Test A preemergence; assay type: in vivo, Triticum aestivum; conditions: preemergence, 125 g ai/ha, visual injury approx. 10 days after treatment
In short: as §2

crabgrass, large = assay: Test A preemergence; assay type: in vivo, Digitaria sanguinalis; conditions: preemergence
In short: as §2

[7] = Postemergence, 31 g ai/ha, visually evaluated after 13 to 15 days
[8] = postemergence, 250 g ai/ha, scale 0 to 100 (0 no effect, 100 complete control)
[9] = postemergence, 125 g ai/ha, scale 0 to 100, 0 no effect, 100 complete control
[10] = Postemergence, 500 g ai/ha, 0 to 100 scale (0 no effect, 100 complete control)
[11] = postemergence, 125 g ai/ha, about 10 days, visual rating on 0 to 100 scale (0 no effect, 100 complete control)
[12] = preemergence, 31 g ai/ha, visual rating, scale 0 to 100 (0 no effect, 100 complete control), 13 to 15 days
[13] = preemergence, 62 g ai/ha, scale 0 to 100 (0 no effect, 100 complete control), 13 to 15 days
[14] = preemergence, 125 g ai/ha, 13 to 15 days, scale 0 to 100, 0 = no effect, 100 = complete control
[15] = 250 g ai/ha, scale 0 to 100 (0 no effect, 100 complete control)
[16] = 125 g ai/ha, scale 0 to 100, 0 no effect, 100 complete control
[17] = 500 g ai/ha, visual injury after approx. 10 days, 0 to 100 scale (0 no effect, 100 complete control)
[18] = Postemergence, 125 g ai/ha, 0 to 100 scale, 0 no effect, 100 complete control
[19] = preemergence, 250 g ai/ha, scale 0 to 100, 0 is no effect, 100 is complete control
[20] = Preemergence, rate head not shown (block before 16 g ai/ha), scale 0 to 100

Structure (SMILES) | Plant response rating, Ragweed (ragweed [1]; [8]) | Plant response rating, Ragweed (ragweed [1]; [9]) | Pigweed plant response rating (pigweed [2]; [10]) | Galium plant response rating (galium; [13]) | Plant response rating, Galium (galium; [14]) | Plant response rating, Rice (rice) | Corn plant response rating (corn [3]; [10]) | Plant response rating (scale of 0 to 100 where 0 is no effect and 100 is complete control), Nutsedge, Yellow (nutsedge, yellow) | Nutsedge, Yellow plant response rating (nutsedge, yellow) | Plant response rating, Nutsedge, Yellow (nutsedge, yellow; [15]) | Plant response rating, Nutsedge, Yellow (nutsedge, yellow; [16]) | Foxtail, Giant plant response rating (foxtail, giant; [17]) | Corn plant response rating (corn [4]; [13]) | Plant response rating, Corn (corn [4]; [14]) | Pigweed plant response rating (pigweed [5]) | Plant response rating, Pigweed (pigweed [5]; [15]) | Plant response rating, Pigweed (pigweed [5]; [16]) | Plant response rating (scale of 0 to 100 where 0 is no effect and 100 is complete control), Blackgrass (blackgrass) | Blackgrass plant response rating (blackgrass) | Plant response rating, Blackgrass (blackgrass; [15]) | also measured
CCOc1cc(C(=O)NCC(F)(F)F)nn1Cc1ccnc(OC(F)F)c1 [Compound 128] | 85 | 85 | 100 | 80 | 100 | 30 | 90 | 5 | 5 | 25 | 10 | 100 | 45 | 65 | 70 | 90 | 65 | 10 | 5 | 80 | Plant response rating (scale of 0 to 100 where 0 is no effect and 100 is complete control), Ragweed (ragweed [1]; [7]): 50; Ragweed plant response rating (ragweed [1]; postemergence, 62 g ai/ha, scale 0 to 100): 40; Pigweed plant response rating (pigweed [2]; [11]): 100; Plant response rating (scale of 0 to 100), Galium (galium; Preemergence, 250 g ai/ha): 100; Galium plant response rating (galium; [12]): 80; Corn plant response rating (corn [3]; [11]): 90; Foxtail, Giant plant response rating (foxtail, giant; 125 g ai/ha, visual injury, 0 to 100 scale, approx. 10 days): 100; Plant response rating (scale of 0 to 100), Corn (corn [4]; Preemergence, 250 g ai/ha): 70; Corn plant response rating (corn [4]; [12]): 15; Plant response rating (scale of 0 to 100 where 0 is no effect and 100 is complete control), Pigweed (pigweed [5]; [7]): 65; Plant response rating, Blackgrass (blackgrass; [16]): 10; Plant response rating (scale of 0 to 100), Ragweed (ragweed [6]; Preemergence, 250 g ai/ha): 90; Ragweed plant response rating (ragweed [6]; [12]): 25; Ragweed plant response rating (ragweed [6]; [13]): 65; Plant response rating, Ragweed (ragweed [6]; [14]): 85
CCCc1cc(C(=O)NC2CC2)nn1Cc1ccnc(OC(F)F)c1 [Compound 205] | 80 | 60 | 100 | 90 | 95 | 0 | 100 | 5 | 5 | 15 | 15 | 100 | 70 | 80 | 85 | 100 | 85 | 5 | 5 | 30 | Pigweed plant response rating (pigweed [2]; [18]): 100; Galium plant response rating (galium; [12]): 100; Galium plant response rating (galium; [19]): 100; Corn plant response rating (corn [3]; [11]): 70; Foxtail, Giant plant response rating (0 to 100 scale) (foxtail, giant; 125 g ai/ha): 100; Corn plant response rating (corn [4]; [12]): 70; Corn plant response rating (corn [4]; [19]): 98; Plant response rating, Blackgrass (blackgrass; [16]): 5; Ragweed plant response rating (ragweed [6]; [12]): 80; Ragweed plant response rating (ragweed [6]; [13]): 100; Plant response rating, Ragweed (ragweed [6]; [14]): 98; Ragweed plant response rating (ragweed [6]; [19]): 100
CCc1cc(C(=O)NC2CC2)nn1Cc1ccnc(Br)c1 [Compound 220] | 45 | 50 | 100 | 80 | 80 | 15 | 90 | 0 | 0 | 10 | 40 | 100 | 0 | 5 | 25 | 60 | 40 | 5 | 5 | 20 | Pigweed plant response rating (pigweed [2]; [18]): 90; Plant response rating, Galium (galium; [20]): 5; Galium plant response rating (galium; [19]): 98; Corn plant response rating (corn [3]; [18]): 40; Wheat plant response rating (0 to 100 scale) (wheat): 0; Foxtail, Giant plant response rating (0 to 100 scale) (foxtail, giant; 125 g ai/ha): 100; Plant response rating, Corn (corn [4]; Preemergence, rate head not shown (block before 16 g ai/ha), scale 0 to 100, 100 is complete control): 0; Corn plant response rating (corn [4]; [19]): 40; Plant response rating, Blackgrass (blackgrass; [16]): 5; Plant response rating, Ragweed (ragweed [6]; [20]): 80; Ragweed plant response rating (ragweed [6]; [13]): 65; Plant response rating, Ragweed (ragweed [6]; [14]): 75; Ragweed plant response rating (ragweed [6]; [19]): 95; Crabgrass, Large plant response rating (0 to 100 scale) (crabgrass, large; 125 g ai/ha, visual injury approx. 10 days after treatment): 100; Crabgrass, Large plant response rating (crabgrass, large; [17]): 100
